Residues, ends and D or L forms follow the SMILES beside them. *: point of attachment. Doxorubicin(3'-N) = COc1cccc2c1C(=O)c1c(O)c3c(c(O)c1C2=O)C[C@@](O)(C(=O)CO)C[C@@H]3O[C@H]1C[C@H](N*)[C@H](O)[C@H](C)O1; Fmoc = O=C(OCC1c2ccccc2-c2ccccc21)*
Tests used:
[1] = tested on: dsDNA (DNA, duplex) CGTACGCGTACGCGTACGCG/CGCGTACGCGTACGCGTACG; test: ITC (single set of identical sites); conditions: 10 mM Tris-HCl pH 7.2, 25 °C
[2] = tested on: dsDNA (DNA, duplex) CGTACGCGTACGCGTACGCG/CGCGTACGCGTACGCGTACG; test: UV-Vis absorbance titration (Benesi–Hildebrand, 480 nm); conditions: 10 mM Tris-HCl pH 7.2, 25 °C; 18 µM compound, no added salt stated
[3] = tested on: dsDNA (DNA, duplex) CGTACGCGTACGCGTACGCG/CGCGTACGCGTACGCGTACG; test: fluorescence quenching titration (Lineweaver–Burk, ex 490 nm, em 594 nm); conditions: 10 mM Tris-HCl pH 7.2, 25 °C; 1.94 µM compound; average of two experiments
[4] = tested on: dsDNA (20 bp, 5′-CGTACGCGTACGCGTACGCG-3′ duplex); test: UV-Vis spectrophotometric titration with dsDNA (Benesi–Hildebrand); type: binding; conditions: 10 mM Tris-HCl pH 7.2, 25 °C
[5] = tested on: dsDNA (20 bp, 5′-CGTACGCGTACGCGTACGCG-3′ duplex); test: Steady-state fluorescence quenching titration with dsDNA; type: binding; conditions: 10 mM Tris-HCl pH 7.2, 25 °C
[6] = tested on: dsDNA; test: Time-resolved fluorescence lifetime measurement; type: physicochemical; conditions: λex 420 nm, λem 594 nm, 20 °C, ligand 5 µM, constant regardless of dsDNA concentration (0–0.25 µM)
[7] = tested on: dsDNA (20 bp, 5′-CGTACGCGTACGCGTACGCG-3′ duplex); test: Isothermal titration calorimetry (ITC) with dsDNA; type: binding; conditions: 10 mM Tris-HCl pH 7.2, 25 °C
[8] = tested on: collagenase IV (containing MMP-2/-9); test: Enzymatic cleavage of MMP-2/-9-cleavable octapeptide by collagenase IV (HPLC); type: in vitro ADME; conditions: 37 °C, APMA-activated 1 mM collagenase IV in HBSS, HPLC read-out
Method: The MMP-2/-9-cleavable peptide was degraded by collagenase IV (containing MMP-2/-9) in a time-dependent manner. […] In order to investigate how fast the octapeptide cleaved, the aliquots were removed after 2, 8, and 12 h.
The MMP-2/-9-cleavable octapeptide Fmoc–Gly–Pro–Leu–Gly–Leu–Ala–Gly–Gly was evaluated by enzymatic digestion with the use of collagenase IV (containing MMP-2/-9). In the first step, 1 mL of HBSS was added to […] of collagenase IV (205 u/mg) and mixed to complete dissolution. Activation of collagenase IV was performed using 1 mM APMA in 0.15 M NaOH for 1.5 h at 37 °C [24, 43]. The octapeptide stock solution was added to activated 1 mM collagenase IV and incubated at 37 °C. The aliquots were removed and analyzed by HPLC, between 2 and 12 h. The HPLC Dionex Ultimate 3000 (Waltham, MA, USA) was equipped with a bioZen Intact XB-C8 column (3.6 μm, 2.1 × 150 mm; Phenomenex, Aschaffenburg, Germany). The flow rate was set at 0.5 mL/min with a mobile phase consisting of solvent A (0.1% TFA) and solvent B (100% ACN). The gradient was as follows: 0–5 min, 0% of solvent B; 5–8 min, 0–30% of solvent B. The hydrolysis product was detected by MALDI TOF/TOF 5800 mass spectrometry (AB Sciex, Darmstadt, Germany).

## COc1cccc2c1C(=O)c1c(O)c3c(c(O)c1C2=O)C[C@@](O)(C(=O)CO)C[C@@H]3O[C@H]1C[C@H](NC(=O)CNC(=O)CNC(=O)[C@H](C)NC(=O)[C@@H](N)CC(C)C)[C@H](O)[C@H](C)O1 (H-LAGG-{Doxorubicin(3'-N)})
[1]; 0.470 mM compound into 0.005 mM dsDNA
  logKITC: 4.24 (±0.09) log (unit not printed)
[2]
  KA: 540000 M⁻¹
[3]
  KA: 5.6e+06 M⁻¹

## COc1cccc2c1C(=O)c1c(O)c3c(c(O)c1C2=O)C[C@@](O)(C(=O)CO)C[C@@H]3O[C@H]1C[C@H](N)[C@H](O)[C@H](C)O1 [DOX, Doxorubicin]
[4]; UV-Vis absorbance at 480 nm, ligand 18 µM, dsDNA up to 1.90 µM
  intrinsic association constant KA (ligand…dsDNA), Benesi–Hildebrand: 1.1e+06 M⁻¹
[4]; from spectrophotometric KA
  free energy of binding ΔG = −RTlnKA: -8.23 kcal/mol
[5]; fluorescence quenching by dsDNA, λex 490 nm, emission 594 nm, ligand 1.94 µM
  bimolecular quenching rate constant kq (Stern–Volmer): 9.37e+15 M⁻¹ s⁻¹
[5]; fluorescence titration, ligands bound per dsDNA molecule
  number of binding sites n (Scatchard, slope of log[(F0−F)/F] vs log[Q]): approximately 1.0
[6]
  fluorescence lifetime τ0: 1.057 ± 0.022 ns
[7]; standard deviation in parentheses
  molar ratio of complex (ligand to dsDNA) from ITC: 7.29 (±0.09)
[7]; ITC, single set of identical binding sites model, SD in parentheses
  logKITC: 6.03 (±0.04)
[7]; ITC, SD in parentheses
  ΔHITC: −9.52 (±0.17) kcal/mol
[7]; ITC, calculated from ΔGITC = ΔHITC − TΔSITC
  TΔSITC: -1.3 kcal/mol
[7]; ITC, ΔGITC = −RTlnKITC, SD in parentheses
  ΔGITC: −8.26 (±0.05) kcal/mol
[1]; 0.174 mM compound into 0.002 mM dsDNA
  logKITC: 6.03 (±0.04) log (unit not printed)
[2]
  KA: 1.1e+06 M⁻¹
[3]
  KA: 1.1e+07 M⁻¹

## CC(C)C[C@H](NC(=O)CNC(=O)[C@H](CC(C)C)NC(=O)[C@@H]1CCCN1C(=O)CNC(=O)OCC1c2ccccc2-c2ccccc21)C(=O)N[C@@H](C)C(=O)NCC(=O)NCC(=O)O [Fmoc–Gly–Pro–Leu–Gly–Leu–Ala–Gly–Gly] (Fmoc-GPLGLAGG-OH)
[8]; 2 h incubation
  MMP-2/-9 cleaved product Fmoc–Gly–Pro–Leu–Gly detected (efficiency of enzymatic digestion): 52.54%
[8]; 8 h incubation
  MMP-2/-9 cleaved product Fmoc–Gly–Pro–Leu–Gly detected (efficiency of enzymatic digestion): 69.53%
[8]; 12 h incubation
  MMP-2/-9 cleaved product Fmoc–Gly–Pro–Leu–Gly detected (efficiency of enzymatic digestion): 82.42%
  substrate (octapeptide) observed after incubation with collagenase IV: 17.43%

— publication PMC7554696 (International Journal of Molecular Sciences, 2020)
